The supplement of paper PMC10307832

Experiments:
Assay in all cases: relative viability (nuclei count vs DMSO), 5 days (fraction); higher = more cells survive
Dabrafenib + Pemetrexed = compound: CC(C)(C)c1nc(-c2cccc(NS(=O)(=O)c3c(F)cccc3F)c2F)c(-c2ccnc(N)n2)s1 [Dabrafenib] + Nc1nc2[nH]cc(CCc3ccc(C(=O)N[C@@H](CCC(=O)O)C(=O)O)cc3)c2c(=O)[nH]1 [Pemetrexed] (partner 0.2 µM)
Summary of the method: (§1)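 The day after seeding in 1536-well plates, lung cancer cell lines were treated by pin tool with a single drug, or with a fixed anchor-drug dose together with five library-drug doses (not always all listed) in √10 steps. After 5 days, a combined fix-and-stain solution (final 0.05% Triton X-100, 1% formaldehyde, 1 ug/ml Hoechst) was added. Nuclei counted on 4× images gave relative viability as treated counts over vehicle counts, reported as the median of duplicate plates.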

VX-702 + Phenformin = compound: NC(=O)c1ccc(N(C(N)=O)c2c(F)cccc2F)nc1-c1ccc(F)cc1F [VX-702] + N=C(N)NC(=N)NCCc1ccccc1 [Phenformin] (partner 250 µM)
Summary of the method: as §1

Dabrafenib + Tozasertib = compound: CC(C)(C)c1nc(-c2cccc(NS(=O)(=O)c3c(F)cccc3F)c2F)c(-c2ccnc(N)n2)s1 [Dabrafenib] + Cc1cc(Nc2cc(N3CCN(C)CC3)nc(Sc3ccc(NC(=O)C4CC4)cc3)n2)n[nH]1 [Tozasertib] (partner 0.1 µM)
Summary of the method: as §1

Dabrafenib + AZD7762 = compound: CC(C)(C)c1nc(-c2cccc(NS(=O)(=O)c3c(F)cccc3F)c2F)c(-c2ccnc(N)n2)s1 [Dabrafenib] + NC(=O)Nc1cc(-c2cccc(F)c2)sc1C(=O)N[C@H]1CCCNC1 [AZD7762] (partner 0.2 µM)
Summary of the method: as §1

Cell Line | relative viability (Dabrafenib + Pemetrexed; first compound 0.003 µM) | relative viability (Dabrafenib + Pemetrexed; first compound 0.009487 µM) | relative viability (Dabrafenib + Pemetrexed; first compound 0.03 µM) | relative viability (Dabrafenib + Pemetrexed; first compound 0.09487 µM) | relative viability (Dabrafenib + Pemetrexed; first compound 0.3 µM) | relative viability (VX-702 + Phenformin; first compound 0.02 µM) | relative viability (VX-702 + Phenformin; first compound 0.2 µM) | relative viability (VX-702 + Phenformin; first compound 0.6325 µM) | relative viability (VX-702 + Phenformin; first compound 2 µM) | relative viability (Dabrafenib + Tozasertib; first compound 0.003 µM) | relative viability (Dabrafenib + Tozasertib; first compound 0.009487 µM) | relative viability (Dabrafenib + Tozasertib; first compound 0.03 µM) | relative viability (Dabrafenib + Tozasertib; first compound 0.09487 µM) | relative viability (Dabrafenib + Tozasertib; first compound 0.3 µM) | relative viability (Dabrafenib + AZD7762; first compound 0.003 µM) | relative viability (Dabrafenib + AZD7762; first compound 0.009487 µM) | relative viability (Dabrafenib + AZD7762; first compound 0.03 µM) | relative viability (Dabrafenib + AZD7762; first compound 0.09487 µM) | relative viability (Dabrafenib + AZD7762; first compound 0.3 µM)
201T | 0.332 | 0.352 | 0.332 | 0.307 | 0.287 | 0.43 | 0.457 | 0.453 | 0.434 | 1.02 | 0.915 | 0.918 | 0.912 | 1.04 | 0.28 | 0.711 | 0.59 | 0.461 | 0.475
A549 | – | – | – | – | – | 0.128 | 0.19 | 0.154 | 0.137 | – | – | – | – | – | – | – | – | – | –
A-427 | 0.891 | 1.04 | 0.828 | 0.803 | 0.987 | 0.306 | 0.303 | 0.395 | 0.28 | – | 0.202 | 0.187 | 0.196 | 0.209 | 0.355 | 0.808 | 0.636 | 0.646 | 0.744
ABC-1 | – | – | – | – | – | 0.214 | 0.201 | 0.229 | 0.228 | 0.215 | 0.244 | 0.206 | 0.132 | 0.174 | 0.345 | 0.638 | 0.823 | 0.789 | 0.597
BEN | – | 0.764 | – | 0.846 | 0.908 | 0.263 | 0.252 | 0.228 | 0.236 | – | 0.563 | – | 0.412 | 0.501 | – | 0.769 | – | 0.81 | 0.852
CAL-12T | 1.21 | 1.44 | 1.18 | 1.08 | 1.14 | 0.699 | 0.55 | 0.609 | 0.632 | 0.377 | 0.424 | 0.423 | 0.328 | 0.349 | 0.59 | 0.626 | 0.661 | 0.594 | 0.703
COR-L23 | 0.18 | 0.213 | 0.193 | 0.209 | 0.196 | 0.484 | 0.492 | 0.437 | 0.494 | 0.174 | 0.221 | 0.201 | 0.205 | 0.19 | – | – | – | – | –
COR-L 105 | 1 | 1.2 | 0.799 | 1.19 | 1.29 | 0.529 | 0.478 | 0.448 | 0.459 | 0.332 | 0.415 | 0.362 | 0.347 | 0.395 | – | – | – | – | –
ChaGo-K-1 | 0.219 | 0.256 | 0.263 | 0.246 | 0.26 | 0.528 | 0.462 | 0.506 | 0.499 | 0.219 | 0.223 | 0.225 | 0.194 | 0.239 | 0.303 | 0.839 | 0.855 | 0.698 | 0.879
EKVX | – | 0.484 | 0.419 | 0.408 | 0.395 | 0.235 | 0.189 | 0.224 | 0.214 | 0.475 | 0.406 | 0.407 | 0.337 | 0.457 | – | 0.749 | 0.588 | 0.676 | 0.72
EMC-BAC-2 | – | 0.401 | 0.392 | 0.32 | 0.377 | 0.522 | 0.549 | 0.526 | 0.402 | 0.286 | 0.284 | 0.23 | 0.243 | 0.267 | – | 1.13 | 0.967 | 0.728 | 0.782
EPLC-272H | 0.273 | 0.271 | 0.304 | 0.262 | 0.488 | 0.303 | 0.302 | 0.381 | 0.26 | 0.345 | 0.326 | 0.33 | 0.273 | 0.256 | – | 0.283 | 0.174 | 0.207 | 0.155
H3255 | 0.564 | 0.593 | 0.607 | 0.511 | 0.643 | 0.352 | 0.344 | 0.371 | 0.386 | 0.507 | 0.675 | 0.721 | 0.609 | 0.629 | 0.791 | 0.94 | 0.908 | 0.758 | 1.16
HARA | – | 0.221 | 0.252 | 0.238 | 0.247 | 0.433 | 0.42 | 0.599 | 0.569 | 0.101 | 0.116 | – | 0.115 | 0.113 | – | 0.392 | 0.46 | 0.368 | 0.312
HCC-15 | 0.221 | 0.225 | 0.227 | 0.212 | 0.215 | 0.536 | 0.441 | 0.525 | 0.557 | 0.602 | 0.506 | 0.355 | 0.398 | 0.386 | 1.17 | 1.11 | 1.09 | 1.16 | 1.09
HCC-44 | 0.61 | 0.58 | 0.697 | 0.598 | 0.651 | 0.191 | 0.286 | 0.191 | 0.225 | 0.959 | 0.974 | 0.976 | 0.836 | 0.989 | 0.966 | 1.02 | 1.12 | 1.06 | 1
HCC-78 | – | 0.935 | 0.91 | 0.879 | 0.795 | 0.63 | 0.823 | 0.689 | 0.676 | – | 0.485 | 0.42 | 0.387 | 0.54 | – | 0.683 | 0.466 | 0.563 | 0.872
HCC-366 | 0.216 | 0.0959 | 0.172 | 0.124 | 0.193 | 0.594 | 0.62 | 0.679 | 0.5 | 0.088 | 0.187 | 0.0643 | 0.104 | 0.0995 | 0.0302 | 0.288 | 0.29 | 0.309 | 0.16
HCC-827 | 0.224 | 0.288 | 0.243 | – | 0.281 | 0.417 | 0.457 | 0.423 | 0.188 | 0.426 | 0.457 | 0.383 | – | 0.377 | 0.129 | 0.234 | 0.216 | – | 0.276
